Source: patent US12514251B2, “Fused heterocyclic compounds and their use as pest control agents” (priority 2020, dated 2026)

Key:
Type in all cases: in vivo
[1] = tested on: Helicoverpa armigera; assay: Helicoverpa armigera, diet incorporation method; details: third instar larvae, 96 h after release, dead + moribund vs untreated control, read-out: percent mortality
Experimental: (§1) The diet incorporation method was used, in which the required quantity of the test compound was weighed and dissolved in a tube containing solvent solution. The tube was put on a vortex at 2000 rpm for 90 min for proper mixing. Semi-synthetic diet was incorporated into this solution when the temperature was approximately 50° C. in the bioassay containers. Compound and diet were stirred thoroughly for proper mixing and allowed to cool for 30 min. The solidified diet was cut into equal pieces, and then each piece was transferred into one cell of a bio-assay tray. A single starved third instar larva was released into each of the cells of the bioassay trays and the tray was covered with a lid. The bio-assay trays were then kept under laboratory conditions at a temperature of 25° C. and a relative humidity of 70%. Observations on dead, moribund and alive larvae were recorded 96 h after the release of the larvae. Percent mortality was calculated by combining dead and moribund larvae and comparing the result to the one of the untreated control.

[2] = tested on: Nilaparvata lugens; assay: Nilaparvata lugens, seedling dip method; details: paddy seedling dip, third instar nymphs, 72 h after release, dead + moribund vs untreated control, read-out: percent mortality
Experimental: The seedling dip method was used for testing, wherein the required quantity of the compound was weighed and dissolved in a tube containing solvent solution. The tube was put on a vortex at 2000 rpm for 90 min for proper mixing, then diluted with 0.01% Triton-X solution to the desired test concentration.
Paddy seedlings were dipped in the compound solution for 10 seconds, shade dried for 20 min and then the seedlings were placed in glass test tubes with the roots kept in water. 15 third instar nymphs were released into each test tube and the tubes were kept in a plant growth chamber at a temperature of 25° C. and relative humidity of 75%. Observations on dead, moribund and alive nymphs were recorded 72 h after the release. Percent mortality was calculated by combining dead and moribund nymphs and comparing the result to the one of the untreated control.

[3] = tested on: Plutella xylostella; assay: Plutella xylostella, leaf dip method; details: foliar, cabbage leaf dip, second instar larvae, 72 h after release, dead + moribund vs untreated control, read-out: percent mortality
How it was run: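 Cabbage leaves were dipped for 10 s in compound diluted with 0.01% Triton-X, shade dried and offered singly to second instar larvae. Trays were held at 25° C. and 70% relative humidity. Dead plus moribund larvae were scored at 72 h, and percent mortality was expressed relative to untreated control.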

[4] = tested on: Bemisia tabaci; assay: Bemisia tabaci, leaf dip method; details: foliar, brinjal leaf dip, whitefly adults, 72 h after release, dead + moribund vs untreated control, read-out: percent mortality
Experimental: The leaf dip method was used for testing, wherein the required quantity of the compound was weighed and dissolved in a tube containing solvent solution. The tube was put on a vortex at 2000 rpm for 90 min for proper mixing, then diluted with 0.01% Triton-X solution to get the desired test concentration. Brinjal leaves were dipped in the compound solution for 10 seconds; shade dried for 20 min and then placed, with the abaxial side of the leaf up, on 4 ml of a 1% agar-agar solution in respective perforated container caps. Known numbers of freshly emerged whitefly adults were collected, using a modified aspirator, and released into a perforated container in which the cap containing the treated leaf was placed. The containers were kept in a plant growth chamber at a temperature of 25° C. and relative humidity of 70%.
Observations on dead, moribund and alive adults were recorded 72 h after the release. Percent mortality was calculated by combining dead and moribund adults and comparing the result to the one of the untreated control. The compounds 55 87 and 198 were recorded ≥70 percent mortality @ 300 PPM.

[5] = tested on: Myzus persicae; assay: Myzus persicae, leaf dip method; details: foliar, capsicum leaf dip, third instar nymphs, 72 h after release, dead + moribund vs untreated control, read-out: percent mortality
Experimental: The leaf dip method was used for testing, wherein the required quantity of the compound was weighed and dissolved in a tube containing solvent solution. The tube was put on a vortex at 2000 rpm for 90 min for proper mixing, then diluted with 0.01% Triton-X solution to the desired test concentration. Capsicum leaves were dipped in the compound solution for 10 seconds, shade dried for 20 min and then placed, with the abaxial side of the leaf up, in single cells of a bio-assay tray containing 4 ml of a 1% agar-agar solution. Known numbers of third instar nymphs, collected in petri plates, were released into the cell with the treated leaf and the cell was covered with a perforated lid for better aeration. The trays were kept in a plant growth chamber at a temperature of 25° C. and a relative humidity of 70%. Observations on dead, moribund and alive nymphs were recorded 72 h after the release. Percent mortality was calculated by combining dead and moribund nymphs and comparing the result with the one of the untreated control.

[6] = tested on: Spodoptera litura; assay: Spodoptera litura, diet incorporation method; details: third instar larvae, 96 h after release, dead + moribund vs untreated control, read-out: percent mortality
Experimental: as §1, with “covered with the lid. The” for “covered with a lid. The”, “release of larvae. Percent” for “release of the larvae. Percent”

| SMILES | mortality at 300 ppm [1] | mortality at 300 ppm [2] | mortality at 300 ppm [3] | mortality at 300 ppm [4] | mortality at 300 ppm [5] | mortality at 300 ppm [6] |
| --- | --- | --- | --- | --- | --- | --- |
| CCS(=O)(=O)c1ccc(N(C)C)nc1-c1ccn2nc(C(F)(F)F)cc2n1 [Compound 166, 5-(ethylsulfonyl)-N,N-dimethyl-6-(2-(trifluoromethyl)pyrazolo[1,5-a]pyrimidin-5-yl)pyridin-2-amine] | ≥ 70% | ≥ 70% | ≥ 70% |  |  |  |
| CCS(=O)(=O)c1ccc(-n2nccn2)nc1-c1cnc2cc(C(F)(F)F)nn2c1 [Compound 55, 6-(3-(ethylsulfonyl)-6-(2H-1,2,3-triazol-2-yl)pyridin-2-yl)-2-(trifluoromethyl)pyrazolo[1,5-a]pyrimidine] |  |  |  | ≥ 70% |  |  |
| CCS(=O)(=O)c1ccc(C)nc1-c1ccn2nc(C(F)(F)F)cc2n1 [Compound 182, 5-(3-(ethylsulfonyl)-6-methylpyridin-2-yl)-2-(trifluoromethyl)pyrazolo[1,5-a]pyrimidine] |  | ≥ 70% | ≥ 70% |  | ≥ 70% |  |
| CCS(=O)(=O)c1ccc(N)nc1-c1ccn2nc(C(F)(F)F)cc2n1 [Compound 174, 5-(ethylsulfonyl)-6-(2-(trifluoromethyl)pyrazolo[1,5-a]pyrimidin-5-yl)pyridin-2-amine] |  | ≥ 70% | ≥ 70% |  |  |  |
| CCS(=O)(=O)c1ccc(NC2CC2)nc1-c1ccn2nc(C(F)(F)F)cc2n1 [Compound 141, N-cyclopropyl-5-(ethylsulfonyl)-6-(2-(trifluoromethyl)pyrazolo[1,5-a]pyrimidin-5-yl)pyridin-2-amine] |  | ≥ 70% | ≥ 70% |  | ≥ 70% |  |
| CCS(=O)(=O)c1cccnc1-c1ccn2nc(C(F)(F)F)cc2n1 [Compound 160, 5-(3-(ethylsulfonyl)pyridin-2-yl)-2-(trifluoromethyl)pyrazolo[1,5-a]pyrimidine] | ≥ 70% |  | ≥ 70% |  | ≥ 70% |  |
| CCS(=O)(=O)c1ccc(N(C)C2CC2)nc1-c1ccn2nc(C(F)(F)F)cc2n1 [Compound 168, N-cyclopropyl-5-(ethylsulfonyl)-N-methyl-6-(2-(trifluoromethyl)pyrazolo[1,5-a]pyrimidin-5-yl)pyridin-2-amine] |  | ≥ 70% | ≥ 70% |  |  | ≥ 70% |
| CCS(=O)(=O)c1ccc(-n2nccn2)nc1-c1ccn2nc(C(F)(F)F)cc2n1 [Compound 41, 5-(3-(ethylsulfonyl)-6-(2H-1,2,3-triazol-2-yl)pyridin-2-yl)-2-(trifluoromethyl)pyrazolo[1,5-a]pyrimidine] | ≥ 70% | ≥ 70% | ≥ 70% |  |  |  |
| CCS(=O)(=O)c1cc(-n2cnc(C)n2)cnc1-c1ncc2nc(C(F)(F)F)n(C)c2n1 [Compound 130, 2-(3-(ethylsulfonyl)-5-(3-methyl-1H-1,2,4-triazol-1-yl)pyridin-2-yl)-9-methyl-8-(trifluoromethyl)-9H-purine] |  | ≥ 70% |  |  |  |  |
| CCS(=O)(=O)c1ccc(NC)nc1-c1ccn2nc(C(F)(F)F)cc2n1 [Compound 167, 5-(ethylsulfonyl)-N-methyl-6-(2-(trifluoromethyl)pyrazolo[1,5-a]pyrimidin-5-yl)pyridin-2-amine] |  | ≥ 70% | ≥ 70% |  | ≥ 70% |  |
